Experimental data taken from patent US12134622B1, “2-benzo-[3,4-b]pyridine-[b,g]indeno[1,2;3,4]fluoreno-[1,2-d]oxonine-5,11,16,21-tetraone as an antimicrobial compound” (KING FAISAL UNIVERSITY, priority 2023, dated 2024).

How the values were obtained:
[1] = test system: Candida albicans; experiment: Antimicrobial screening, agar dilution method; type: cell-based; conditions: after 10, 20, 40 and 60 minutes at all dilutions 1:100, 1:200, 1:400, 1:800
Procedure: (§1) The antibacterial properties of the synthesized compound 2-benzo-[3,4-b]pyridine-[b,g]indeno[1′,2′:3,4]fluoreno-[1,2-d]oxonine-5,11,16,21-tetraone were studied by the method of agar dilution. Test solutions of each compound was prepared in concentration of 1% using dimethylformamide as a solvent then they are diluted in physiological solution to obtain the final experimental dilutions 1:100, 1:200, 1:400, 1:800. The effect of these substances are compared with furacillin in a controllable study. The testing microbes used were gram positive bacteria Staphylococcus aureus, gram negative bacteria Pseudomonas aeruginosa and Escherichia coli and Candida albicans fungus. The experiments used for this survey were meat-pentonlu agar (EPA) for cultivation of bacteria and Saburo environment for the fungus. Each experiment used 1 mL of test solution on each plate […]. Two drops of emulsified with microbes feel were added. All experimental samples were taken from the agar after 10, 20, 40, 60 minutes in the environment on the basis of Patrk planted. The bacteria were cultivated at a temperature of 37° C. for 1 day and the mushroom was kept in a thermostat for 2 hours at a temperature of 28° C. Then results were checked.

[2] = test system: Pseudomonas aeruginosa; experiment: Antimicrobial screening, agar dilution method; type: cell-based; conditions: after 10, 20, 40 and 60 minutes at all dilutions 1:100, 1:200, 1:400, 1:800
Procedure: as §1

[3] = test system: Staphylococcus aureus; experiment: Antimicrobial screening, agar dilution method; type: cell-based; conditions: after 10, 20, 40 and 60 minutes at all dilutions 1:100, 1:200, 1:400, 1:800
Procedure: as §1

[4] = test system: Escherichia coli; experiment: Antimicrobial screening, agar dilution method; type: cell-based; conditions: after 10, 20, 40 and 60 minutes at all dilutions 1:100, 1:200, 1:400, 1:800
Procedure: as §1

O=C1Oc2ncccc2-c2c(c3c4ccccc4c(=O)c3c3c2c(=O)c2ccccc23)C(=O)c2ccccc21 [2-benzo-[3,4-b]pyridine-[b,g]indeno[1′,2′:3,4]fluoreno-[1,2-d]oxonine-5,11,16,21-tetraone]
melting point: 270 to 271 °C | inhibition activity [1]: highest inhibition activity | inhibition activity [2]: highest inhibition activity | inhibition activity [3]: highest inhibition activity | inhibition activity [4]: highest inhibition activity
